“And” between values parts separate entries of the source, which are not always exact repeats. Equal values may be shown once. Read-outs that look alike come from different tables or passages of the source.
Tests used:
[1] = system: myocardial ketone body utilization; assay: Ketone body utilization in the heart in vivo measured by hyperpolarized 13C-MRS; design: species or system rat
Description: Male non-obese diabetic Goto-Kakizaki (GK/MolTac; n=10) rats bred by Taconic (New York, US) were ordered from InVivos (Singapore). Male wild-type Wistar Han rats (n=10) were purchased from InVivos (Singapore) and served as controls. At 24 weeks of age, the animals underwent ^13C MRS and MRI to determine myocardial ketone body utilization and cardiac function. The animals were anaesthetized with isoflurane (3% for induction; 1.5-2% for maintenance) in medical air and oxygen at a flow rate of 2.0 L/min and 0.5 L/min, respectively. A catheter was inserted into the tail vein for intravenous administration of the hyperpolarized [3-^13C] acetoacetate inside the MRI scanner. At the end of the study, the animals were sacrificed. Blood and organs were collected and stored at −80° C. for biochemical analysis. All procedures involving animals were approved by A*STAR Institutional Animal Care and Use Committee (#171204)
Rats were positioned supine in a 9.4 T horizontal bore MR scanner interfaced to a Avance III HD console (Biospec, Bruker, Germany), with the heart directly above a dual-tuned (^1H/^13C) rat surface coil (diameter: 30 mm). Correct positioning was confirmed by the acquisition of an axial proton FLASH image (TE/TR, 8.0/100.0 ms; matrix size, 128×128; FOY, 40×40 mm; slice thickness, 1.5 mm; excitation flip angle, 30°). A cardiac-triggered and respiratory-gated shim was used to reduce the proton linewidth to approximately 160 Hz. Immediately before injection, a respiratory-gated ^13C MR pulse-acquire spectroscopy sequence was initiated. Then, hyperpolarized [3-^13C]acetoacetate (0.75-1.05 mL; 0.240 mmol/kg body weight) was injected via tail vein at a rate of 6 mL/min. Sixty individual heart spectra were acquired over 2 minutes after injection (TR, 2 s; excitation flip angle, 25°; sweep width, 8,000 Hz; acquired points, 4,096; frequency centered at 190 ppm from tetramethylsilane (TMS) standard).
Cardiac ^13C MR spectra were analyzed using the AMARES algorithm as implemented in the jMRUI software package (Naressi A, et al. Magn Reson Mater Physics, Biol Med. 2001; 12:141). Spectra were baseline and DC offset-corrected based on the last half of acquired points. To quantify myocardial ketone metabolism, spectra were summed over the first 30 seconds upon acetoacetate arrival. Peaks corresponding to [3-^13C]acetoacetate and its metabolic derivatives [5-^13C]glutamate, [1-^13C]acetoacetate, and [1-^13C]acetylcarnitine were fitted with prior knowledge assuming a Lorentzian line shape, peak frequencies, relative phases, and linewidths. The fitted amplitudes were then normalized to the amplitude of [3-^13C]acetoacetate.

[2] = Hyperpolarization (DNP) and lifetime of [3-13C]acetoacetate; format: physicochemical
Procedure: Approximately 51 mg of [3-^13C]acetoacetate, doped with 5.5 mg of trityl-radical (OX063, GE Healthcare), 250 μl of gadoterate meglumine (1.2 mmol/L, Dotarem®, Guerbet) and […] of DMSO (25% v/v) was prepared. Total volume is approximately […], resulting in 1.23 mol/L of [3-^13C]acetoacetate, 9.3 mmol/L of OX063, and 0.80 mmol/L of gadolinium. […] of the sample was hyperpolarized in a polarizer (Hypersense, Oxford Instruments, Oxford, UK), with 120 min of microwave irradiation at 94.097 GHz. The polarized sample was subsequently dissolved in 3 mL of pressurized and heated Tris-EDTA buffer with pH 7.80, to yield a solution of 80 mmol/L hyperpolarized [3-^13C]acetoacetate with a polarization of 10% and physiological temperature and pH.
The Examiner first determined whether the synthesized [3-^13C]acetoacetate can be hyperpolarized with sufficient polarization and lifetime for in vivo application. After 120 minutes of microwave irradiation at 1.2 K, the achieved polarization was 10.3±1.2% and T1 was 28.2±3.1 s. Besides the main substrate peak at 209.9 ppm and the natural abundance [1-^13C]acetoacetate at 174.6 ppm, an impurity peak was detected at 181.0 ppm. The amplitude of the impurity peak is 0.19±0.01% of the [3-^13C]acetoacetate signal. The impurity peak is very close to the expected [5-^13C]glutamate peak at 181.2 ppm (FIG. 2B). […]

[3] = 0.240 mmol/kg i.v.
blood glucose = assay: Intraperitoneal insulin tolerance test (IpITT); format: in vivo, rat; details: diabetic GK rats, insulin 1 U/kg i.p.
Procedure: The response to insulin glucose tolerance was determined by measuring the blood glucose levels before and at 60, 120, 180, 240, 300, and 360 minutes after intraperitoneal injection of insulin solution (1 U/kg body weight).

insulin secretion = details: infusion in man, concentration higher than 2 mM; cited from earlier work
[4] = biological target: T1, sodium/glucose co-transporter-2 (SGLT-2) (Homo sapiens, UniProt P31639); details: cited from earlier work
T1 construct: host or cells: diabetic patients (in vivo)
T1 sequence (P31639 1-672): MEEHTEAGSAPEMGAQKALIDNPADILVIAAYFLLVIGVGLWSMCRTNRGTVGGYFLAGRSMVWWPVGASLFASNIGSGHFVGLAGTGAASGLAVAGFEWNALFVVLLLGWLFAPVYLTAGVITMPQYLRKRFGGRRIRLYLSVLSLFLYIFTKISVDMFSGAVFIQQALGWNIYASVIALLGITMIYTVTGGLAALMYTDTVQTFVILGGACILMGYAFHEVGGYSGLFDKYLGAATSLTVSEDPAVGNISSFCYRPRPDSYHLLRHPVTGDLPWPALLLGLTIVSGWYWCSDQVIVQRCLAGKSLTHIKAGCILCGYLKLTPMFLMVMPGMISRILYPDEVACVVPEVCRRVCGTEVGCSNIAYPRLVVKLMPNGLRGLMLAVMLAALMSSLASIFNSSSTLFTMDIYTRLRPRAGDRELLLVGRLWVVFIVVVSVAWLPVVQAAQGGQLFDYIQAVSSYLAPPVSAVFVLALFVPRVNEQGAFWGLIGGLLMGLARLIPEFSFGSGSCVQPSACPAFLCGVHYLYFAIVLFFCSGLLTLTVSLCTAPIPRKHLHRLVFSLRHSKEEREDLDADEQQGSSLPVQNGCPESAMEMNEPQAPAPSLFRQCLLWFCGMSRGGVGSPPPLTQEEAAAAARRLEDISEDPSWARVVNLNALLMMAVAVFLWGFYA

myocardial infarct = details: fasted rats, ischemia-reperfusion; cited from earlier work
[5] = diabetic GK vs control rats, P=0.002
[6] = rat heart, i.v., 13C MRS time resolution 2 s

C[13C](=O)CC(=O)[O-].[Li+] [[3-^13C]acetoacetate, lithium [3-^13C]acetoacetate]
production of [3-13C]β-OHB ([1]; diabetic GK vs control rats, P=0.001): lower in diabetic rats than in control rats | production of [5-13C]glutamate [1, 5]: higher in the diabetic rats than in controls | total production of [5-13C]glutamate+[1-13C]citrate [1, 5]: also higher in the diabetic rats compared with controls | total products of ketone body utilization ([5-13C]glutamate+[1-13C]acetylcarnitine) ([1]; diabetic GK vs control rats, normalized to [3-13C]acetoacetate, P=0.009): higher in the diabetic rats compared with controls | [5-13C]glutamate metabolite signal, relative to [3-13C]acetoacetate signal ([1]; rat heart in vivo, i.v. injection): 2-4 % of the [3-13C]acetoacetate s | appearance of 13C label in [1-13C]acetylcarnitine and [5-13C]glutamate after acetoacetate peaks [1, 6]: 2 to 4 s | appearance of [1-13C]citrate [1, 6]: 8 to 10 s | achieved polarization ([2]; 120 min microwave irradiation at 1.2 K, DNP): 10.3±1.2% and 10% | T1 ([2]; after 120 min microwave irradiation at 1.2 K): 28.2 ± 3.1 s | calculated acetoacetate concentration in the blood after injection ([3]; GK rats): 4.30 mM | calculated acetoacetate concentration in the blood after injection ([3]; control rats): 4.27 mM

insulin: insulin solution injected intraperitoneally in the insulin tolerance test
blood glucose during insulin tolerance test (blood glucose): lowered blood glucose

CC(=O)CC(=O)O [acetoacetate]
effect on insulin secretion (insulin secretion): transient stimulatory effect on insulin secretion | time after which the effect on insulin secretion abates (insulin secretion): 10 to 15 min

OC[C@H]1O[C@@H](c2ccc(Cl)c(Cc3ccc(O[C@H]4CCOC4)cc3)c2)[C@H](O)[C@@H](O)[C@@H]1O [empagliflozin]
plasma ketone body concentration ([4]; after empagliflozin treatment): increase in plasma ketone body concentration | cardiovascular outcome ([4]; diabetic patients): improved cardiovascular outcome

CC(O)CC(=O)O (stereo not drawn) [β-OHB, β-hydroxybutyrate]
myocardial infarct size and apoptosis (myocardial infarct): reduced myocardial infarct size and apoptosis

Reference: US10995054B2, “Hyperpolarized [3-13C]acetoacetate and methods of using the same” (Agency for Science, Technology and Research, priority 2016, dated 2021)
